Experimental data reported in ChEMBL document CHEMBL1201862, “PubChem BioAssay data set” (2004).
Calls of active or inactive are those of the source.

Tests used:
[1] = inhibitors of Vif binding to APOBEC3G peptide, primary screen, biochemical, TR-FRET, GST-Vif 1-94, biotin-A3G peptide, dose response retest (AID 1117319); type: functional;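 also: TR-FRET signal of purified GST-Vif binding a biotinylated A3G peptide; inhibitors lower the FRET signal by blocking Vif and A3G binding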
Galanin receptor type 3 = target: T1, Galanin receptor type 3 (Homo sapiens, UniProt O60755); test: Fluorescence-based cell-based primary high throughput dose response assay to identify antagonists of the Galanin Receptor 3 (GalR3).; type: functional
T1 sequence (O60755 whole entry): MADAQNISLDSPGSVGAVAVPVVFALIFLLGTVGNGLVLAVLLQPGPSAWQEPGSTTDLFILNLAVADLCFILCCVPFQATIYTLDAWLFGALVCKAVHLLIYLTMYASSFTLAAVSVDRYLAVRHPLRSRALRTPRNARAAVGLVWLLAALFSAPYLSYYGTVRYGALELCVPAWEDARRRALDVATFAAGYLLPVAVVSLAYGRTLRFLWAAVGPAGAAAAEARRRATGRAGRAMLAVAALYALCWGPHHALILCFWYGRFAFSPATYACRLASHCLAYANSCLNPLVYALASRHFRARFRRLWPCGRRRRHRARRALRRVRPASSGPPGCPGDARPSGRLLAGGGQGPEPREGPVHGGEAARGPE

cells = type: functional, cell-based; conditions: HEK-CNG
[2] = M. tuberculosis H37Rv growth inhibitors, H37Rv strain (AID 1626); type: functional
[3] = Shn3 3'UTR reporter inhibitors, dose response, cell-based, Clone20 osteoblasts, firefly luciferase, cherry-picked (AID 624132); type: functional;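 also: firefly luciferase luminescence from reporter carrying the Shn3 3'UTR in osteoblasts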
[4] = HepG2 cell cytotoxicity, dose response, cytotoxicity control for Shn3 inhibitor project, CellTiter-Glo, cherry-picked (AID 624134); type: functional, cell-based
[5] = control 3'UTR Renilla luciferase suppression, dose response, counter-screen for Shn3 inhibitor project, cell-based, Clone20-Shn3RL, cherry-picked (AID 624133); type: functional
[6] = inhibitors of clade B AD8 Env fusion, dose response, cell-based, cherry-pick (AID 652062); type: functional;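 also: luciferase signal from cell-cell fusion driven by HIV-1 clade B AD8 Env; potency is for inhibitors of fusion seen as a drop in luminescence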
[7] = target: T2, RNA-binding protein pos-1 (Caenorhabditis elegans, UniProt G5EF15); test: inhibitors of POS-1/mex-3 RNA binding, dose response, biochemical, fluorescence polarization (AID 1964);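 also: purified POS-1 fused to maltose binding protein made in E. coli; potency of compounds blocking POS-1 binding to fluorescent RNA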
T2 sequence (G5EF15 whole entry): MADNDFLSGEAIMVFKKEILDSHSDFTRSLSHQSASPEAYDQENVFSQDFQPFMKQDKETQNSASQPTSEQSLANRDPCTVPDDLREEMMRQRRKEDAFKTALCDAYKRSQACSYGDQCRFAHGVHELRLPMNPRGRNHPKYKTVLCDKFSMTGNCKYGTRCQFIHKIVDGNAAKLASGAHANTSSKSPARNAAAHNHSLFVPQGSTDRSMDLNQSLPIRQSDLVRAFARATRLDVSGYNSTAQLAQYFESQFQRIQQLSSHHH

[8] = target: T3, Zinc finger protein mex-5 (Caenorhabditis elegans, UniProt Q9XUB2); test: MEX-5/TCR-2 RNA interaction inhibitors, dose response, biochemical, C. elegans, fluorescence polarization (AID 1960)
T3 sequence (Q9XUB2 whole entry): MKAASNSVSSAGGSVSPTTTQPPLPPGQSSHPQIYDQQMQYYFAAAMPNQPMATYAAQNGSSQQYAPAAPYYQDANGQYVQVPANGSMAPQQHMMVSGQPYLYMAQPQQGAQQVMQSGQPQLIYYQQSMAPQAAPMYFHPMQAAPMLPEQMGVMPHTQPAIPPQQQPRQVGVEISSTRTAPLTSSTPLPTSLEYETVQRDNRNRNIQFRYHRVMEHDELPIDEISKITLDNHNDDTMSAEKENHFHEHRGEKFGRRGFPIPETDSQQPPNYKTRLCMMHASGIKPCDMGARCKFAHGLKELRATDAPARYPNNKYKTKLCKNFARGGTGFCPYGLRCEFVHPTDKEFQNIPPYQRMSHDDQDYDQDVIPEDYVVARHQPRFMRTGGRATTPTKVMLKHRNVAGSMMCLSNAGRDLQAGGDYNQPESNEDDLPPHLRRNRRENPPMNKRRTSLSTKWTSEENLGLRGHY

Caspase-6 = target: T4, Caspase-6 (Homo sapiens, UniProt P55212); test: human caspase-6 inhibitors, dose response, biochemical, VEID-R110 fluorescence, cherry-pick (AID 720632)
T4 sequence (P55212 whole entry): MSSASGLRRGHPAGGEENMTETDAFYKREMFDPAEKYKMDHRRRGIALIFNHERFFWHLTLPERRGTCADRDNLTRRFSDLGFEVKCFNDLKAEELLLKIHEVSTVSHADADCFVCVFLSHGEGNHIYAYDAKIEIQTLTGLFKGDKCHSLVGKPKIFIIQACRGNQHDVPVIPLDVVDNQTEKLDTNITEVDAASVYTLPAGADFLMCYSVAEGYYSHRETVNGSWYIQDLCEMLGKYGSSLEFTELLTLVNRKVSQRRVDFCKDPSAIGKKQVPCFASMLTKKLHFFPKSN

[9] = target: Peroxisome proliferator-activated receptor gamma/Nuclear receptor coactivator 1 (Homo sapiens, UniProt P37231); test: TR-FRET dose response biochemical High Throughput Screening assay for agonists of the steroid receptor coactivator 1 (SRC-1) recruitment by the peroxisome proliferator-activated receptor gamma (PPAR gamma): non-selective agonists. [Related pubchem assays (depositor defined):AID1300, AID1808, AID504735, AID631]; type: protein assay
[10] = target: Peroxisome proliferator-activated receptor gamma/Nuclear receptor coactivator 3 (Homo sapiens, UniProt P37231); test: TR-FRET dose response biochemical High Throughput Screening assay for agonists of the steroid receptor coactivator 3 (SRC-3) recruitment by the peroxisome proliferator-activated receptor gamma (PPAR gamma): non-selective agonists. [Related pubchem assays: 1301 (Confirmation screen.), 1048 (Primary screen.)]; type: functional
Peroxisome proliferator-activated receptor gamma/Nuclear receptor coactivator 3, sequence (P37231 whole entry): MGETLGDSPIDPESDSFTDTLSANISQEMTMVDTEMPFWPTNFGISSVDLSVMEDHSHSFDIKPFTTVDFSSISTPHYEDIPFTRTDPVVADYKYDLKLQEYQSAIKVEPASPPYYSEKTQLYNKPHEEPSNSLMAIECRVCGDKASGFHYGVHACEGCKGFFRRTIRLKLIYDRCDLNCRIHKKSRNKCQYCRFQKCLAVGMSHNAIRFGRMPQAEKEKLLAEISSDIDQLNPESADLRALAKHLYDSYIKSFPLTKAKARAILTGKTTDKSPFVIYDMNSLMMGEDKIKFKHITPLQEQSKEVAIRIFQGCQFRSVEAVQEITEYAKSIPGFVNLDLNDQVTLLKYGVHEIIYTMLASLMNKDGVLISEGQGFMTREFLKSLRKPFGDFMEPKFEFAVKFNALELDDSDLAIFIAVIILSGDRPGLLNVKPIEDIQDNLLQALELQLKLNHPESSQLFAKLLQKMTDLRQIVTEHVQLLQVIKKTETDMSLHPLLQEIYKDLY
Peroxisome proliferator-activated receptor gamma/Nuclear receptor coactivator 3, sequence (Q9Y6Q9 whole entry, further chain): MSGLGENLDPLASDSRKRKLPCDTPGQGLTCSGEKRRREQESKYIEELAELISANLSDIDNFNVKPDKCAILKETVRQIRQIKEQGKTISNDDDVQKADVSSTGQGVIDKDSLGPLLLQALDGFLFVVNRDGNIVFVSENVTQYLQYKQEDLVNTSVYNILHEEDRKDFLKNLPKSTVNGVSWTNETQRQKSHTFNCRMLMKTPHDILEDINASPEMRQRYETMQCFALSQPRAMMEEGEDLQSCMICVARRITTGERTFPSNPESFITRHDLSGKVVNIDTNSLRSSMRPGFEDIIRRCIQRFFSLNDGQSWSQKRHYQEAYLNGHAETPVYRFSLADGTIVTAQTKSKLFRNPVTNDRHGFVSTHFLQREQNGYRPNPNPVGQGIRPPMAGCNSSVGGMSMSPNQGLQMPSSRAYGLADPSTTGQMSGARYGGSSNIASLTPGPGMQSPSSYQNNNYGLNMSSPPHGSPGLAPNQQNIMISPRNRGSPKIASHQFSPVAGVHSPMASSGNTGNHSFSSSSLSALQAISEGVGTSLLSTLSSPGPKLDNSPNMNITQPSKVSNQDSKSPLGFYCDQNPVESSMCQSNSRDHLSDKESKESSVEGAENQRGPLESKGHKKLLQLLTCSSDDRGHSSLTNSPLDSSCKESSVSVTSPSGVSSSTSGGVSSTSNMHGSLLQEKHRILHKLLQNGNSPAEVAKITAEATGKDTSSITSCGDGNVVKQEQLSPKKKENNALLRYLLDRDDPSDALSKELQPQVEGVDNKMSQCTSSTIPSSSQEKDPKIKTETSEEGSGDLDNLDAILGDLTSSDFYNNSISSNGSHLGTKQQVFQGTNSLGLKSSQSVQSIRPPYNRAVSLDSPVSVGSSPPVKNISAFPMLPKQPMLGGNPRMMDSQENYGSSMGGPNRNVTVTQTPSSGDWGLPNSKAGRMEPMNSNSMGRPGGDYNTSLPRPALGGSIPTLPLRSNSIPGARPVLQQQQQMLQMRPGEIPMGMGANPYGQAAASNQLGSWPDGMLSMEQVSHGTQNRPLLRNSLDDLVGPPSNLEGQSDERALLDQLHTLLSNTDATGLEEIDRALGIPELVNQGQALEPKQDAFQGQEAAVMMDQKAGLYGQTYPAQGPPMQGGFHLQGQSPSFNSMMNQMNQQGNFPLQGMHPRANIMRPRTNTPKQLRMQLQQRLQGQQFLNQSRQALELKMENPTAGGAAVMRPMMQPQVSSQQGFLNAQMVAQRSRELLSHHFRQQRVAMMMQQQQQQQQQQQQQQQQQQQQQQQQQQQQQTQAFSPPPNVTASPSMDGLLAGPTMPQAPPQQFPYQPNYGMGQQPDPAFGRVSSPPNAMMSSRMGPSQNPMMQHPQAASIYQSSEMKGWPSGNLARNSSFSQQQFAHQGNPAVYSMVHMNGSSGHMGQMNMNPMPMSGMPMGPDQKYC

[11] = target: Peroxisome proliferator-activated receptor gamma/Nuclear receptor coactivator 2 (Homo sapiens, UniProt P37231); test: TR-FRET dose response biochemical High Throughput Screening assay for agonists of the steroid receptor coactivator 2 (SRC-2) recruitment by the peroxisome proliferator-activated receptor gamma (PPAR gamma): non-selective agonists. [Related pubchem assays: 1297, 1032 ]; type: functional
[12] = target: T5, Histone-lysine N-methyltransferase NSD2 (Homo sapiens, UniProt O96028); type: biochemical
T5 sequence (O96028 whole entry): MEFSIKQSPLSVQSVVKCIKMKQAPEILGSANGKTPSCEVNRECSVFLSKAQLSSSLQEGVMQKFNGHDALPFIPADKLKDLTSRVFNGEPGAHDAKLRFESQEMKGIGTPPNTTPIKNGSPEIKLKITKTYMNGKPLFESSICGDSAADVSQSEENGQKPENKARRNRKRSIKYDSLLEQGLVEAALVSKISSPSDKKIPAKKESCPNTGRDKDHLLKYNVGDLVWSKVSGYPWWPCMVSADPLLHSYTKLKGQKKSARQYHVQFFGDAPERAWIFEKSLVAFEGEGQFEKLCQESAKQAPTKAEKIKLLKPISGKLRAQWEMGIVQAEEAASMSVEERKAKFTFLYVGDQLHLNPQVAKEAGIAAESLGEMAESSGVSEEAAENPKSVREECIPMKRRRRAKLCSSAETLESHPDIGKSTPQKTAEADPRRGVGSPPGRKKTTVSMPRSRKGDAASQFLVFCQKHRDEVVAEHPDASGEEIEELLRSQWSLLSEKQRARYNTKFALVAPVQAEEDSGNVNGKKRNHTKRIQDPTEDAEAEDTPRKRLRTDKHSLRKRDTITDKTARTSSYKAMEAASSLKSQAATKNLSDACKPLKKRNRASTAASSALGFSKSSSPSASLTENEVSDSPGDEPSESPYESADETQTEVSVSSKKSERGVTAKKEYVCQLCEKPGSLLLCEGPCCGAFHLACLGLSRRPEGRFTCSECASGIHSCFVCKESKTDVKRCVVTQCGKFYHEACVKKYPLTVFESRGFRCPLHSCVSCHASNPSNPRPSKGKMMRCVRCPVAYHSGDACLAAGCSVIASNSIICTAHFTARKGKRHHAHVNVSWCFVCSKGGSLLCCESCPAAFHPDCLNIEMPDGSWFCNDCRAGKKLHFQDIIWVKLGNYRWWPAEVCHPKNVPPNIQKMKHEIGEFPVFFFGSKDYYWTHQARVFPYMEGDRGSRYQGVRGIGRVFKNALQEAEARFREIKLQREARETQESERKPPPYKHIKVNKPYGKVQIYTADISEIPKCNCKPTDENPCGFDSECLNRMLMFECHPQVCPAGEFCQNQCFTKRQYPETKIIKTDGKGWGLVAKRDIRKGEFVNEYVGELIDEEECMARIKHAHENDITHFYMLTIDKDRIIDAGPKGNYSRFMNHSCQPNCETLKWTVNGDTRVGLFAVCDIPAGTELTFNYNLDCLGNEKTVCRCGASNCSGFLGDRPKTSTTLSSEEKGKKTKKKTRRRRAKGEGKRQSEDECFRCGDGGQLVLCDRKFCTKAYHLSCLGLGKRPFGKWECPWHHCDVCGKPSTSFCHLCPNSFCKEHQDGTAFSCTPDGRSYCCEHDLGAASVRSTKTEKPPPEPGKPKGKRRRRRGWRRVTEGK

Cytochrome P450 2C9 = Cytochrome P450 2C9 (Homo sapiens, UniProt P11712)
Cytochrome P450 2C9, sequence (P11712 whole entry): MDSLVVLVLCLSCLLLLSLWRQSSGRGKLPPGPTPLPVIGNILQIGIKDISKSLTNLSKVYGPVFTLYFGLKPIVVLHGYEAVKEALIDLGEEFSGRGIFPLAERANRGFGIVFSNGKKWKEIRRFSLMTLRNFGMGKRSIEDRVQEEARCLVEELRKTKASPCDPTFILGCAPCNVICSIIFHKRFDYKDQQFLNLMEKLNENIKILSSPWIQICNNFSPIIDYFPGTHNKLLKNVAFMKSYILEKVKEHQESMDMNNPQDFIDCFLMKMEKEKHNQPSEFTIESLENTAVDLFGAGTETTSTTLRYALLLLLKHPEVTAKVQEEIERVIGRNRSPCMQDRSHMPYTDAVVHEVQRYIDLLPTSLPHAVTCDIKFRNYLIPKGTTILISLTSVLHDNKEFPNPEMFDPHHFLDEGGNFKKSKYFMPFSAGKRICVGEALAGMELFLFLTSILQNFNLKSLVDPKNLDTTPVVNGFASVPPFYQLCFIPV

[13] = target: T6, Calpain-2 catalytic subunit (Sus scrofa, UniProt P43367); test: pig calpain II inhibitor potency, dose response, biochemical, fluorogenic peptide substrate (AID 1420); type: functional
T6 sequence (P43367 whole entry): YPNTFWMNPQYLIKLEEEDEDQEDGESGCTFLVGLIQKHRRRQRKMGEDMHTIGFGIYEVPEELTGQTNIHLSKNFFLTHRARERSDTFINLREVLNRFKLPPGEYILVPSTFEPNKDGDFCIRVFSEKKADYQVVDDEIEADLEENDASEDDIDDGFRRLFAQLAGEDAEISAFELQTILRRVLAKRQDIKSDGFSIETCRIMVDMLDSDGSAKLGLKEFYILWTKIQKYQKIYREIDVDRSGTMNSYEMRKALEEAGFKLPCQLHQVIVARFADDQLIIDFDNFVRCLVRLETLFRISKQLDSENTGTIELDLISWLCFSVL

INS1 = test: beta cell apoptosis inhibitors, cytokine rescue, dose response, luminescence, retest (AID 449756); type: functional, cell-based; conditions: Rattus norvegicus;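 also: cell death triggered by IL-1 beta plus TNF-alpha plus IFN-gamma mixture; protective hits raise ATP signal compared with cytokine alone wells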
Vero = test: cells; type: functional; conditions: Chlorocebus sabaeus
Paired box protein Pax-8 = Paired box protein Pax-8 (Homo sapiens, UniProt Q06710); test: inhibitors of PAX8-driven TPO luciferase reporter, dose response, RMG-I cells, cherry-pick (AID 687027); type: functional, cell-based;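 also: luciferase reporter driven by Pax8 target thyroperoxidase promoter measured by SteadyGlo luminescence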
Paired box protein Pax-8, sequence (Q06710 whole entry): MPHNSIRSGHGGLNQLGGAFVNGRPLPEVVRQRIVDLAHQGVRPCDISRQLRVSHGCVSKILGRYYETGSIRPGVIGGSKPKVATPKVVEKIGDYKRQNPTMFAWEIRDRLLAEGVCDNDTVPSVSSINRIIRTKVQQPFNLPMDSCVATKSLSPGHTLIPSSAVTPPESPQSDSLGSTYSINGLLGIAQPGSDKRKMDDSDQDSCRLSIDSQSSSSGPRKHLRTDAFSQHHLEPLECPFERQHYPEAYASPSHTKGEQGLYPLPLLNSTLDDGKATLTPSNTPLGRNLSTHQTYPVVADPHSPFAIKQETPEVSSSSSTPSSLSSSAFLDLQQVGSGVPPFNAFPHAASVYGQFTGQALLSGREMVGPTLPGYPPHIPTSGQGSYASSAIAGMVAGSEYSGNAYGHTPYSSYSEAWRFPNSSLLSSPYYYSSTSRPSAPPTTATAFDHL

[14] = target: Induced myeloid leukemia cell differentiation protein Mcl-1 (Homo sapiens, UniProt Q07820); type: functional
Induced myeloid leukemia cell differentiation protein Mcl-1, sequence (Q07820 whole entry): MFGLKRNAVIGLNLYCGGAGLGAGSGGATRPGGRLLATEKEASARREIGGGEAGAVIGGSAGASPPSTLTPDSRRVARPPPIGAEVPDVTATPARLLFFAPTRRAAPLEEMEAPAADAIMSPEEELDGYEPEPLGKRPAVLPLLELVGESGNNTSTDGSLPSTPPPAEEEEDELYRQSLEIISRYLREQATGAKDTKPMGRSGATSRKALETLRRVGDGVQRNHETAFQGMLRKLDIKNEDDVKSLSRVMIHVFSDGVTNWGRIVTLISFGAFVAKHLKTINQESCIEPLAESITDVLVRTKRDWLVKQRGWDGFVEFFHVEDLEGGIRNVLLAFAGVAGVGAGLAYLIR

CCCn1c(=N)n(CC(O)c2ccco2)c2ccccc21 (stereo unspecified)
IC50 [1]: > 100 µM (active)

Cc1ccc(C(=O)N2c3ccc(F)cc3CCC2C)o1 (stereo unspecified)
IC50 [1]: > 100 µM (active)

COc1ccc(-c2cn(-c3ccc(C)c(Cl)c3)c(S)n2)cc1OC
IC50 (Galanin receptor type 3): > 29.9 µM (inactive) | EC50 (cells): > 29.9 µM (inactive)

COc1ccc(N2CCN(CCNC(=O)Nc3ccc(Cl)cc3)CC2)cc1
IC50 [1]: > 100 µM (active)

COc1cccc(CNc2ccccc2O)c1OCc1ccccc1F
IC50 [2]: > 100 µM (active)

C=CCNc1nc2c(c(=O)n(C)c(=O)n2C)n1CCCCCC
AC50 [3]: 0.761 µM (active) | AC50 [4]: 2.6 µM (active) | AC50 [5]: 1.18 µM (active) | IC50 (Galanin receptor type 3): 1.95 µM (active) | EC50 (cells): > 29.9 µM (inactive) | AC50 [6]: 7.74 µM (active)

N#CC1=C(N)Oc2cc(O)c(Cl)cc2C1c1ccccc1F (stereo unspecified)
EC50 [7]: > 300 µM (not active) | EC50 [8]: > 300 µM (not active) | AC50 (Caspase-6): 42.2 µM (active)

N#CC1=C(N)Oc2c(c(=O)oc3ccccc23)C1c1ccc([N+](=O)[O-])o1 (stereo unspecified)
AC50 (Caspase-6): 13.9 µM (active)

COc1c(F)c(F)c(C(=O)Nc2ccc3oc(-c4ccncc4)nc3c2)c(F)c1F
EC50 [9]: 21.5 µM (inactive) | EC50 [10]: 57.7 µM (not active) | EC50 [11]: 20.6 µM (not active) | IC50 [1]: > 100 µM (active)

CCOc1ccc(NC(=O)CCn2cccc2)cc1
IC50 [2]: > 100 µM (active)

CN(C)c1ccc(CNCCC(Cc2ccccc2)c2ccco2)cc1 (stereo unspecified)
AC50 [12]: > 20 µM (inactive)

Nc1nn2c(O)c3c(nc2c1N=Nc1ccccc1)CCCC3
IC50 (Galanin receptor type 3): 3.7 µM (active) | EC50 (cells): > 29.9 µM (inactive) | AC50 (Cytochrome P450 2C9): 8.91 µM (inconclusive)

Cc1ccc(NC(=O)CCn2cnc3ccccc3c2=O)cc1Cl
IC50 [2]: > 100 µM (active)

CCOc1ccc(NC=C2C(=O)CC(C)(C)CC2=O)cc1
IC50 [2]: > 100 µM (active)

COc1ccc(-c2csc(NC(=O)c3ccccc3NS(=O)(=O)c3ccc(F)c(F)c3)n2)cc1
IC50 [13]: > 50 µM (not active) | AC50 (INS1): 3.05 µM (active) | CC50 (Vero): 2.03 µM (active) | IC50 (Galanin receptor type 3): 1.4 µM (active) | EC50 (cells): > 29.9 µM (inactive) | AC50 (Paired box protein Pax-8): 2.64 µM (active)

CSc1nc2ccc(NS(=O)(=O)c3cccc(Cl)c3Cl)cc2s1
IC50 [2]: > 100 µM (active)

O=c1nc2s/c(=C\c3ccc(-c4ccccc4[N+](=O)[O-])o3)c(=O)n2nc1-c1ccccc1
IC50 [14]: 9.66 µM (active) | AC50 (Caspase-6): 18 µM (active)
